Experimental data from patent US9421211B2, “N,N′-diarylurea compounds and N,N′-diarylthiourea compounds as inhibitors of translation initiation” (President and Fellows of Harvard College, priority 2009, dated 2016).
pIC50: −log10 of the molar value. Read-outs that look alike come from different tables or passages of the source.

How the values were obtained:
[1] = system: eIF2.GTP.Met-tRNAi ternary complex; assay: Ternary complex assay: dual luciferase F-luc/R-luc ratio in KLN-tTA/pBISA-DL(ATF-4) cells (HTS screen, 96-well hit confirmation, dose response); type: cell-based, mouse; conditions: for Ternary Complex Activity: Maximum effect (Emax, fold over control) / Cmax / fold induction at 3 µM / fold induction at 10 µM: cell line not stated; for Cmax: read-out: Ternary Complex Activity: Maximum effective dose Cmax; for fold induction at 3 µM / fold induction at 10 µM: Mus musculus; for Activity 2.5 uM: compound at 2.5 uM; for Activity 2.5 uM / Activity 10 uM: confirmed hits (Table 5); for Activity 10 uM: compound at 10 uM; for Effect on firefly/renilla luciferase ratio: KLN-tTA/pBISA-DL(ATF-4) cells
Excerpt: For assay development, a bi-directional plasmid was designed in which a common promoter/enhancer complex drives the transcription of firefly luciferase (F-luc) ORF fused to the 5′ untranslated region (UTR) of ATF-4, and of the renilla luciferase (R-luc) ORF fused to a 90-nucleotide 5′ UTR derived from the plasmid (FIG. 6A). Because the tetracycline-regulated transactivator ((tTA), required for driving transcription from this vector) is not normally expressed in the mammalian cells, stable KLN cancer cells were constructed that expressed tTA (KLN-tTA).
The KLN-tTA colonies that drove expression of reporter genes from pBISA-DL plasmid were selected by transient transfection and dual luciferase assay. One of these KLN-tTA cell lines was transfected with the pBISA-DL^(ATF-4) expression vector, stable colonies were selected by dual luciferase assay and expanded. To determine if reduced availability of the eIF2.GTP.Met-tRNAi ternary complex increased the translation of firefly luciferase and decreased translation of renilla luciferase, selected KLN-tTA/pBISA-DL^(ATF-4) colonies were treated with thapsigargin (TG) or tunicamycin (TU), two agents known to cause phosphorylation of eIF2α.
This assay was then adapted for high throughput screening in 96 and 384 well plates. This was done by evaluating the cell density, length of exposure to compounds, DMSO tolerance and optimum firefly and renilla substrate. We then challenged these cells with thapsigargin or DMSO. […] Cell-based assays usually have higher variation than homogeneous in vitro assays due to position effect in the plate, and other variables associated with handling of cells and the plates.
Screening was conducted in 384 well white opaque plates (Nalge Nunc), 100 μl volume RPMI+10% fetal bovine serum. Cells were plated at the sub-confluent density of 10,000 cells/well, and allowed to attach for a period of 16-18 hours at 37° C., 5% CO2. Compounds were added as 1 μl of a 1 mM DMSO stock solution for a final screening concentration of […] using low-volume tips for transfer (Molecular Bioproducts). Cells were then incubated in the presence of compound for an additional sixteen hours, again at 37° C., 5% CO2. Following incubation 70 μl of the culture medium was removed from each well to allow for reagent addition and plates were allowed to equilibrate to room temperature for thirty minutes. Firefly luciferase reporter activity was then read by the addition of thirty microliters of Dual Glo Luciferase reagent (Promega), followed by one hour incubation at room temperature to allow for adequate signal buildup. Luminescence counting was conducted on a Microbeta Trilux using a 1 second read time. Renilla luciferase reporter activity was measured following addition of 30 μl Stop and Glo Luciferase reagent (Promega) and incubation identical to the one carried out for the firefly luciferase one.
Compound scores were interpreted as firefly luciferase activity divided by renilla luciferase activity, normalized to the plate's DMSO control. […] All data analysis was conducted using the BioAssay HTS software package (CambridgeSoft).
102,709 compounds in the NCI Open Chemical Repository were then screened using this HTS assay. […] Initial hits were confirmed by repeating the same dual luciferase assay in 96 well plates. Briefly, 20,000 cells/well were plated in triplicate for each concentration (10, 5 and 2.5 μM) of the compounds.

[2] = system: CRL-2351 human breast cancer cells; assay: Cell proliferation SRB assay, CRL-2351; type: cell-based; conditions: for pIC50: CRL-2351 human breast cancer cells, read-out: Growth Inhibition IC50 (μm)
Method: (§1) Reduced availability of the ternary complex causes inhibition of translation initiation and thereby of cell proliferation. […] The effects of N,N′-diarylureas on the proliferation KLN mouse squamous cell carcinoma, CRL-2351 human breast, CRL-2813 human melanoma, A549 human lung and PC-3 human prostate cancer cell lines were tested.
(§2) Cell Growth Assay: Cell Growth was Measured by the SRB Assay.

[3] = system: KLN mouse squamous cell carcinoma cells; assay: Cell proliferation SRB assay, KLN; type: cell-based; conditions: KLN cells, read-out: IC50 (μM) by SRB assay, KLN
Method: as §1, §2

[4] = system: eIF2.GTP.Met-tRNAi ternary complex; assay: ATF-4 assay (firefly/renilla luciferase ratio) in CRL-2351 cell line; type: cell-based, human
Excerpt: For example, reducing amount of the ternary complex increases translation of ATF-4, which results in elevated expression of CHOP mRNA and protein. Therefore, expression of endogenous CHOP mRNA and CHOP protein in KLN-tTA/pBISA-DL^(ATF-4) cells were utilized as secondary assays to validate N,N′-diarylurea compounds as modifiers of the eIF2.GTP.Met-tRNAi ternary complex. […] To rule out the possibility that the activity of N,N′-diarylurea compounds was confined to a single cell type, the effects of these compounds on the ternary complex assay and the expression of CHOP mRNA was assayed in CRL-2351, PC-3, CRL-2813 human breast, prostate, and melanoma cancer cell lines respectively. For the reporter gene assay, the three human cell lines were co-transfected with tTA expression vector and the pBISA-DL^(ATF-4) dual luciferase expression vector shown in FIG. 6. […] The expression of CHOP mRNA was assayed by real time PCR in the same cell lines treated with 5 or 20 μM of each compound.
Stable and transient transfection: Cells were seeded at the density of 10^5 in 60-mm (stable transfection) or 10^4 cells per well of 96-well plate (transient transfection) plates and transfected one day later using the Qiagen Transfectamine transfection kit. For selection of stable cell lines, transfected cells were transferred to 100-mm plates and selected with appropriate antibiotics.
Dual luciferase assay: Cells or minced tumors expressing firefly and renilla luciferases were lysed and the extracts assayed with a glow type dual luciferase assay kit, per manufacturer's instruction (Promega Inc., Madison, Wis.).

Compound | pIC50 [2] | fold induction at 3 µM [1] | fold induction at 10 µM [1] | further results
Cc1ccc(N(C)C(=O)Nc2cc(C(F)(F)F)cc(C(F)(F)F)c2)cc1O [BLS13] |  |  |  | Ternary Complex Activity: Maximum effect (Emax, fold over control) [1]: 8.5 fold over control; Cmax [1]: 80 µM
COc1cc(N(C)C(=O)Nc2cc(C(F)(F)F)cc(C(F)(F)F)c2)ccc1C [BLS14] |  |  |  | Ternary Complex Activity: Maximum effect (Emax, fold over control) [1]: Inactive
CN(C(=O)Nc1cc(C(F)(F)F)cc(C(F)(F)F)c1)c1cc(C(F)(F)F)cc(C(F)(F)F)c1 [BLS17] |  |  |  | Ternary Complex Activity: Maximum effect (Emax, fold over control) [1]: 13 fold over control; Cmax [1]: 10 µM
Cc1ccc(NC(=O)Nc2cc(C(F)(F)F)cc(C(F)(F)F)c2)cc1OCCN(C)C [Compound 13, 3-[3,5-bis(trifluoromethyl)phenyl]-1-{3-[2-(dimethylamino)ethoxy]-4-methylphenyl}urea] |  |  |  | IC50 ([2]; Homo sapiens, 2351 cells, read-out: IC50 (μM) by SRB assay, 2351): 2.9 µM; IC50 [3]: 12.4 µM; maximal fold induction ([4]; Homo sapiens, read-out: ATF-4 Amax: maximal activity, ratio of firefly over renilla luciferase expression): 12.5; EC (activity threshold of 5) ([4]; Homo sapiens, read-out: ATF-4 C[5] (μM): concentration corresponding to an activity threshold of 5): 5 µM; Cmax ([4]; read-out: ATF-4 Cmax (μM): concentration corresponding to the maximal activity): 10 µM
FC(F)(F)c1cc(NC(=S)Nc2ccc(Cl)c(Cl)c2)cc(C(F)(F)F)c1 [Compound 1798] | 6.40 | 3 | 5 | 
COc1ccc(NC(=S)Nc2cc(C(F)(F)F)cc(C(F)(F)F)c2)cc1 [Compound 1816] | 5.82 | 1 | 2.5 | 
Clc1ccc(Nc2nncn2-c2ccc(Cl)c(Cl)c2)cc1Cl [Compound 1842] |  | 1 | 1 | 
N#Cc1ncc(Cl)cc1[N+](=O)[O-] [Compound 141226] |  |  |  | Activity 2.5 uM [1]: 1.02; Activity 10 uM [1]: 3.8
CC(C)(C)C[CH2][Hg][Cl] [Compound 146249] |  |  |  | Activity 2.5 uM [1]: 2.57; Activity 10 uM [1]: 3.25
C[C@H](N)C(=O)NCC(=O)N[C@H]1CSSC[C@@H](C(=O)O)NC(=O)[C@H](CO)NC(=O)[C@H]([C@@H](C)O)NC(=O)[C@H](Cc2ccccc2)NC(=O)[C@H]([C@@H](C)O)NC(=O)[C@H](CCCCN)NC(=O)[C@H](Cc2c[nH]c3ccccc23)NC(=O)[C@H](Cc2ccccc2)NC(=O)[C@H](Cc2ccccc2)NC(=O)[C@H](CC(N)=O)NC(=O)[C@H](CCCCN)NC1=O [Somatostatin] |  |  |  | Relative F-luc/R-luc Ratio (+/− SEM) ([1]; agent at 20 μM): 0.9 + 0.2
COc1cc([C@@H]2c3cc4c(cc3[C@@H](O[C@@H]3O[C@@H]5CO[C@@H](C)O[C@H]5[C@H](O)[C@H]3O)[C@H]3COC(=O)[C@H]23)OCO4)cc(OC)c1O [etoposite, reference compound] |  |  |  | Effect on firefly/renilla luciferase ratio [1]: no effect
CO[C@@]12[C@H](COC(N)=O)C3=C(C(=O)C(C)=C(N)C3=O)N1C[C@@H]1N[C@@H]12 [mitomycin, reference compound] |  |  |  | Effect on firefly/renilla luciferase ratio [1]: no effect
C/C=C(/C)C(=O)O[C@H]1C(C)=C2[C@H]([C@@H]1OC(=O)CCCCCCC)[C@@](C)(OC(C)=O)C[C@H](OC(=O)CCC)[C@@]1(O)[C@H]2OC(=O)[C@@]1(C)O [thapsigargin, reference compound] |  |  |  | Effect on firefly/renilla luciferase ratio [1]: increase in the ratio
tunicamycin [reference compound] |  |  |  | Effect on firefly/renilla luciferase ratio [1]: increase in the ratio

Continued, in another order:

pIC50 [2] | Compound | fold induction at 3 µM [1] | fold induction at 10 µM [1] | further results
6.40 | FC(F)(F)c1cc(NC(=S)Nc2ccc(Cl)c(C(F)(F)F)c2)ccc1Cl [Compound 1778] | 5 | 8 | 
5.92 | FC(F)(F)c1ccc(NC(=S)Nc2ccc(Cl)c(Cl)c2)cc1 [Compound 1797] | 1 | 1 | 
6.15 | FC(F)(F)c1cc(NC(=S)Nc2ccc(Cl)c(Cl)c2)ccc1Cl [Compound 1799] | 4 | 4 | 
6.30 | FC(F)(F)c1cc(NC(=S)Nc2ccc(Cl)cc2)cc(C(F)(F)F)c1 [Compound 1800] | 3 | 4 | 
6.10 | FC(F)(F)c1cc(NC(=S)Nc2ccc(Cl)cc2)ccc1Cl [Compound 1801] | 3 | 3 | 
5.46 | Cc1ccc(NC(=S)Nc2ccc(Cl)c(C(F)(F)F)c2)cc1O [Compound 1802] | 1.5 | 7 | 
5.77 | Cc1ccc(NC(=S)Nc2cc(C(F)(F)F)cc(C(F)(F)F)c2)cc1O [Compound 1803] | 1 | 12 | 
7.00 | FC(F)(F)c1cc(NC(=S)Nc2cc(C(F)(F)F)cc(C(F)(F)F)c2)cc(C(F)(F)F)c1 [Compound 1804] | 6 | 25 | 
5.80 | S=C(Nc1ccc(Cl)cc1)Nc1ccc(Cl)c(Cl)c1 [Compound 1805] | 1.4 | 8 | 
6.05 | S=C(Nc1ccc(Cl)c(Cl)c1)Nc1ccc(Cl)c(Cl)c1 [Compound 1806] | 2.5 | 3.5 | 
5.70 | CNC(=O)c1cc(Oc2ccc(NC(=S)Nc3ccc(Cl)c(C(F)(F)F)c3)cc2)ccn1 [Compound 1814] | 1.5 | 2 | 
< 4.70 | COc1ccc(NC(=S)Nc2ccccc2)cc1 [Compound 1815] | 1 | 1 | 
5.82 | FC(F)(F)c1cc(NC(=S)Nc2ccccc2)cc(C(F)(F)F)c1 [Compound 1819] | 1 | 6 | 
5.82 | CC(C)c1ccccc1NC(=S)Nc1cc(C(F)(F)F)cc(C(F)(F)F)c1 [Compound 1820] | 1.5 | 11 | 
5.40 | CC(C)(C)c1ccccc1NC(=S)Nc1cc(C(F)(F)F)cc(C(F)(F)F)c1 [Compound 1821] | 1 | 1 | 
5.70 | FC(F)(F)c1cc(Nc2nncn2-c2cc(C(F)(F)F)cc(C(F)(F)F)c2)cc(C(F)(F)F)c1 [Compound 1836] | 1 | 1 | 
